# Patent publication US7291641B2, “Derivatives of heterocycles with 5 members, their preparation and their use as medicaments” (Societe de Conseils de Recherches et d'Applications …, priority 1999, dated 2007)
# Structures can show the parent of a compound that is named as a salt.
row,Compound,melting point
1,"CCN(CC)c1ccc(-c2c[nH]c([C@@H](NC3CCCCC3)C3CCCCC3)n2)cc1 (as salt: hydrochloride) [Example 292, 4-{2-[(S)-cyclohexyl(cyclohexylamino)methyl]-1H-imidazol-4-yl}-N,N-diethylaniline]",204 to 210 °C
2,"Fc1ccc(-c2c[nH]c([C@@H](NCC3CCCCC3)C3CCCCC3)n2)cc1 (as salt: hydrochloride) [Example 295, (S)-1-cyclohexyl-N-(cyclohexylmethyl)-1-[4-(4-fluorophenyl)-1H-imidazol-2-yl]methanamine]",190 to 192 °C
3,"FC(F)(F)c1ccc(-c2c[nH]c([C@@H](NC3CCCCC3)C3CCCCC3)n2)cc1 (as salt: hydrochloride) [Example 296, N-((S)-cyclohexyl{4-[4-(trifluoromethyl)phenyl]-1H-imidazol-2-yl}methyl)cyclohexanamine]",214.1 °C
4,"Brc1cccc(-c2c[nH]c([C@@H](NC3CCCCC3)C3CCCCC3)n2)c1 (as salt: hydrochloride) [Example 297, N-[(S)-[4-(3-bromophenyl)-1H-imidazol-2-yl](cyclohexyl)methyl]-cyclohexanamine]",230.4 °C
5,"Brc1cccc(-c2c[nH]c([C@@H](NCC3CCCCC3)C3CCCCC3)n2)c1 (as salt: hydrochloride) [Example 306, (S)-1-[4-(3-bromophenyl)-1H-imidazol-2-yl]-1-cyclohexyl-N-(cyclohexylmethyl)methanamine]",206.3 °C
6,"FC(F)(F)c1cccc(-c2c[nH]c([C@@H](NCC3CCCCC3)C3CCCCC3)n2)c1 (as salt: hydrochloride) [Example 307, (S)-1-cyclohexyl-N-(cyclohexylmethyl)-1-{4-[3-(trifluoromethyl)-phenyl]-1H-imidazol-2-yl}methanamine]",198 to 200 °C
7,"N[C@H](CC1CCCCC1)c1nc(-c2ccc(F)cc2)c[nH]1 (as salt: hydrochloride) [Example 308, (1R)-2-cyclohexyl-1-[4-(4-fluorophenyl)-1H-imidazol-2-yl]ethanamine]",148 to 149 °C
8,"CCN(CC)c1ccc(-c2c[nH]c([C@@H](N)C3CCCCC3)n2)cc1 (as salt: hydrochloride) [Example 310, 4-{2-[(S)-amino(cyclohexyl)methyl]-1H-imidazol-4-yl}-N,N-diethylaniline]",216 to 217 °C
9,"N[C@H](c1nc(-c2cccc(F)c2)c[nH]1)C1CCCCC1 (as salt: hydrochloride) [Example 311, (S)-1-cyclohexyl-1-[4-(3-fluorophenyl)-1H-imidazol-2-yl]methanamine]",238 to 241 °C
10,"Fc1cccc(-c2c[nH]c([C@@H](NCC3CCCCC3)C3CCCCC3)n2)c1 (as salt: hydrochloride) [Example 312, (S)-1-cyclohexyl-N-(cyclohexylmethyl)-1-[4-(3-fluorophenyl)-1H-imidazol-2-yl]methanamine]",180 to 186 °C
11,"Fc1cccc(-c2c[nH]c([C@@H](NC3CCCCC3)C3CCCCC3)n2)c1 (as salt: hydrochloride) [Example 314, N-{(S)-cyclohexyl[4-(3-fluorophenyl)-1H-imidazol-2-yl]methyl}cyclohexanamine]",213.9 °C
12,"CC(C)(C)c1cc(-c2c[nH]c([C@@H](N)C3CCCCC3)n2)cc(C(C)(C)C)c1O (as salt: hydrochloride) [Example 316, 4-{2-[(S)-amino(cyclohexyl)methyl]-1H-imidazol-4-yl}-2,6-ditert-butylphenol]",222 to 228 °C
13,"CCCCOC(=O)NCCc1nc(-c2ccc(N3CCCC3)cc2)c[nH]1 (as salt: hydrochloride) [Example 317, butyl 2-[4-(4-pyrrolidin-1-ylphenyl)-1H-imidazol-2-yl]ethylcarbamate]",165 to 166 °C
14,"Fc1ccc(-c2c[nH]c([C@H](NCC3CCCCC3)C3CCCCC3)n2)cc1 (as salt: hydrochloride) [Example 318, (R)-1-cyclohexyl-N-(cyclohexylmethyl)-1-[4-(4-fluorophenyl)-1H-imidazol-2-yl]methanamine]",188.2 °C
15,"N[C@H](Cc1ccccc1)c1nc(-c2ccc(F)cc2)c[nH]1 (as salt: hydrochloride) [Example 324, (1R)-1-[4-(4-fluorophenyl)-1H-imidazol-2-yl]-2-phenylethanamine]",173 to 180 °C
16,"Fc1ccc(-c2c[nH]c([C@@H](Cc3ccccc3)NC3CCCCC3)n2)cc1 (as salt: hydrochloride) [Example 327, N-{(1R)-1-[4-(4-fluorophenyl)-1H-imidazol-2-yl]-2-phenylethyl}cyclohexanamine]",210 to 213 °C
17,"CC(C)(C)c1cc(-c2c[nH]c(CCNC(=O)OCC3CCCCC3)n2)cc(C(C)(C)C)c1O (as salt: hydrochloride) [Example 329, cyclohexylmethyl 2-[4-(3,5-ditert-butyl-4-hydroxyphenyl)-1H-imidazol-2-yl]ethylcarbamate]",111.5 °C
18,"O=C(NCCc1nc(-c2ccc(-c3ccc(Br)cc3)cc2)c[nH]1)OCC1CCC1 (as salt: hydrochloride) [Example 337, cyclobutylmethyl 2-[4-(4′-bromo-1,1′-biphenyl-4-yl)-1H-imidazol-2-yl]ethylcarbamate]",214 to 215 °C
19,"NCCCc1nc(-c2ccc(F)cc2)c[nH]1 (as salt: hydrochloride) [Example 343, 3-[4-(4-fluorophenyl)-1H-imidazol-2-yl]propan-1-amine]",245 to 246 °C

row,Compound,melting point
1,"CCCCCCC(NCc1ccccc1)c1nc(-c2cccc(Br)c2)c[nH]1 (racemic) (as salt: acetate) [Example 193, (R,S)-N-benzyl-1-[4-(3-bromophenyl)-1H-imidazol-2-yl]-1-heptanamine]",115 to 116 °C
2,"CCCCCCC(NCC(C)C)c1nc(-c2ccccc2)c[nH]1 (racemic) (as salt: acetate) [Example 234, (R,S)-N-isobutyl-1-(4-phenyl-1H-imidazol-2-yl)-1-heptanamine]",70 to 72 °C
3,"CCCCCC(N)c1nc(-c2ccccc2)c[nH]1 (racemic) (as salt: hydrochloride) [Example 65, (R,S)-1-(4-phenyl-1H-imidazol-2-yl)hexylamine]",146 to 148 °C
4,"CCCCCCC(N)c1nc(-c2cccc(OC)c2)c[nH]1 (racemic) (as salt: hydrochloride) [Example 69, (R,S)-1-[4-(3-methoxyphenyl)-1H-imidazol-2-yl]heptylamine]",110 to 112 °C
5,"CCCCCCC(NC1CCC1)c1nc(-c2ccc(F)cc2)c[nH]1 (racemic) (as salt: hydrochloride) [Example 84, (R,S)-N-{1-[4-(4-fluorophenyl)-1H-imidazol-2-yl]heptyl}-cyclobutanamine]",144 to 146 °C
6,"Cn1cc(CC(N)c2nc(-c3ccccc3)c[nH]2)c2ccccc21 (racemic) (as salt: hydrochloride) [Example 92, (R,S)-2-(1-methyl-1H-indol-3-yl)-1-(4-phenyl-1H-imidazol-2-yl)ethylamine]",110 to 114 °C
7,"NC(Cc1c[nH]c2cc(Cl)ccc12)c1nc(-c2ccccc2)c[nH]1 (racemic) (as salt: hydrochloride) [Example 122, (R,S)-2-(6-chloro-1H-indol-3-yl)-1-(4-phenyl-1H-imidazol-2-yl)ethylamine]",210 to 212 °C
8,"CCCCCCC(N)c1nc(-c2ccccc2)c[nH]1 (racemic) (as salt: hydrochloride) [Example 142, (R,S)-1-(4-phenyl-1H-imidazol-2-yl)heptylamine]",131 to 134 °C
9,"CCCCC(N)c1nc(-c2ccc(-c3ccccc3)cc2)c[nH]1 (racemic) (as salt: hydrochloride) [Example 175, (R,S)-1-(4-[1,1′-biphenyl]-4-yl-1H-imidazol-2-yl)-1-pentanamine]",197 to 200 °C
10,"CCCCC(N)c1nc(-c2ccccc2)c[nH]1 (racemic) (as salt: hydrochloride) [Example 181, (R,S)-1-(4-phenyl-1H-imidazol-2-yl)pentylamine]",178 to 180 °C
11,"CCCCCCC(N)c1nc(-c2ccc(C)cc2)c[nH]1 (racemic) (as salt: hydrochloride) [Example 184, (R,S)-1-[4-(4-methylphenyl)-1H-imidazol-2-yl]-1-heptanamine]",157 to 160 °C
12,"CCCCCCC(N)c1nc(-c2ccccc2OC)c[nH]1 (racemic) (as salt: hydrochloride) [Example 185, (R,S)-1-[4-(2-methoxyphenyl)-1H-imidazol-2-yl]heptylamine]",238 to 240 °C
13,"CCCCCCC(N)c1nc(-c2ccc(-c3ccccc3)cc2)c[nH]1 (racemic) (as salt: hydrochloride) [Example 188, (R,S)-1-(4-[1,1′-biphenyl]-4-yl-1H-imidazol-2-yl)-heptanamine]",182 to 184 °C
14,"CCCCCCC(N)c1nc(-c2ccc(OC)cc2)c[nH]1 (racemic) (as salt: hydrochloride) [Example 190, (R,S)-1-[4-(4-methoxyphenyl)-1H-imidazol-2-yl]heptylamine]",231 to 232 °C
15,"CCCCCCC(N)c1nc(-c2cccc(Br)c2)c[nH]1 (racemic) (as salt: hydrochloride) [Example 191, (R,S)-1-[4-(3-bromophenyl)-1H-imidazol-2-yl]-1-heptanamine]",230 to 231 °C
16,"CCCCCCC(NCc1ccccc1)c1nc(-c2ccc(C)cc2)c[nH]1 (racemic) (as salt: hydrochloride) [Example 200, (R,S)-N-benzyl-1-[4-(4-methylphenyl)-1H-imidazol-2-yl]-1-heptanamine]",185 to 188 °C
17,"CCCCCCC(N)c1nc(-c2ccc(C#N)cc2)c[nH]1 (racemic) (as salt: hydrochloride) [Example 205, (R,S)-4-[2-(1-aminoheptyl)-1H-imidazol-4-yl]benzonitrile]",218 to 220 °C
18,"CCCCCCC(N)c1nc(-c2cc(C(C)(C)C)c(O)c(C(C)(C)C)c2)c[nH]1 (racemic) (as salt: hydrochloride) [Example 210, (R,S)-4-[2-(1-aminoheptyl)-1H-imidazol-4-yl]-2,6-di(tert-butyl)-phenol]",204 to 206 °C
